Publication PMC5454391, “Improving 10-deacetylbaccatin III-10-β-O-acetyltransferase catalytic fitness for Taxol production” (Nature Communications, 2017)
Changes are numbered by the printed parent chain.

How the values were obtained:
Assay type in all cases: biochemical
DBAT of T. brevifolia = biological target: T1, DBAT of T. brevifolia (Taxus brevifolia, UniProt B5KRG4); experiment: HPLC of Taxol formed; conditions: 500 μM acetyl-CoA, 50 mM sodium acetate pH 5.5, […], 180 min
T1 sequence (B5KRG4 1-440): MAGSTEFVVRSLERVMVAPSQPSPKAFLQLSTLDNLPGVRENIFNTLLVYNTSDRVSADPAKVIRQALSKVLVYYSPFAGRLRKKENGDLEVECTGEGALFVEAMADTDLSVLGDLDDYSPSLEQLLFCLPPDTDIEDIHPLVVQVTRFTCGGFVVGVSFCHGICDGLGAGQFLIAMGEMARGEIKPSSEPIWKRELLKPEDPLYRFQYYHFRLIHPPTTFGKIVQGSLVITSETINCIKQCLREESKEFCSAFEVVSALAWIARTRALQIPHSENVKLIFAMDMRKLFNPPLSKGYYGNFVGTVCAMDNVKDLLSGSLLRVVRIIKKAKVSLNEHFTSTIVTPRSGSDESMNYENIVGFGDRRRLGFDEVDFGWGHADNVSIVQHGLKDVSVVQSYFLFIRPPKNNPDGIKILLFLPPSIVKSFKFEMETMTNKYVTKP

DBAT of T. canadensis [1] = biological target: T2, DBAT of T. canadensis (Taxus canadensis, UniProt B5KRF5); experiment: HPLC of Taxol formed; conditions: 500 μM acetyl-CoA, 50 mM sodium acetate pH 5.5, […], 180 min
T2 sequence (B5KRF5 1-440): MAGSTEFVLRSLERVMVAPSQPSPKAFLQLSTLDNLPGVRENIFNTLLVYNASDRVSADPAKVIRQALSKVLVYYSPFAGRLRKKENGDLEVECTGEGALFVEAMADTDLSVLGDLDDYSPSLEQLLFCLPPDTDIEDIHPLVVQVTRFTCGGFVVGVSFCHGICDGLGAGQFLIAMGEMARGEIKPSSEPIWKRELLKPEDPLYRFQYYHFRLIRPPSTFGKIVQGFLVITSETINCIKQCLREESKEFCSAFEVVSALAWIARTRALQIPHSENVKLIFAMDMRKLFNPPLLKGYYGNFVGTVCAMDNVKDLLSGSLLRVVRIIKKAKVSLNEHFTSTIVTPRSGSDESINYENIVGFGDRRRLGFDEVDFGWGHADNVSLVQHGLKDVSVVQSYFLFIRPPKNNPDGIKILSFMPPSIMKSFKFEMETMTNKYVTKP

DBAT of T. x media [2] = biological target: T3, DBAT of T. x media (Taxus x media, UniProt Q6SQJ5); experiment: HPLC of Taxol formed; conditions: 500 μM acetyl-CoA, 50 mM sodium acetate pH 5.5, […], 180 min
T3 sequence (Q6SQJ5 1-440): T2 sequence (B5KRF5 1-440) with L9V, A58V, R213Q, R216C, F228S, L294S, M422V

[3] = biological target: T4, DBAT of T. wallichiana var. (Taxus mairei, UniProt B5KRG1); experiment: HPLC of Taxol formed; conditions: 500 μM acetyl-CoA, 50 mM sodium acetate pH 5.5, […], 180 min
T4 sequence (B5KRG1 1-440): T2 sequence (B5KRF5 1-440) with L9V, L123H, V158M, F228S, L294S, I352V, M422V

[4] = biological target: T4, DBAT of T. wallichiana var.; experiment: HPLC of baccatin III formed; conditions: 500 μM acetyl-CoA, 50 mM sodium acetate pH 5.5, 40 °C, 20 min
DBAT of T. x media [5] = biological target: T3, DBAT of T. x media; experiment: HPLC of baccatin III formed; conditions: 500 μM acetyl-CoA, 50 mM sodium acetate pH 5.5, 40 °C, 20 min
DBAT of T. canadensis [6] = biological target: T2, DBAT of T. canadensis; experiment: HPLC of baccatin III formed; conditions: 500 μM acetyl-CoA, 50 mM sodium acetate pH 5.5, 40 °C, 20 min

Structure (SMILES)	HPLC of Taxol formed (DBAT of T. brevifolia)	HPLC of Taxol formed (DBAT of T. canadensis [1])	HPLC of Taxol formed (DBAT of T. x media [2])	HPLC of Taxol formed [3]	HPLC of baccatin III formed [4]	HPLC of baccatin III formed (DBAT of T. x media [5])	HPLC of baccatin III formed (DBAT of T. canadensis [6])
CC(=O)O[C@@]12CO[C@@H]1C[C@H](O)[C@@]1(C)C(=O)[C@H](O)C3=C(C)[C@@H](OC(=O)[C@H](O)[C@@H](NC(=O)c4ccccc4)c4ccccc4)C[C@@](O)([C@@H](OC(=O)c4ccccc4)[C@H]21)C3(C)C [compound 2, DT]	the DBATs of T. cuspidata and T. brevifolia showed the highest specific activities	all other recombinant enzymes exhibited acetylation activity against 10-DAB and DT	all other recombinant enzymes exhibited acetylation activity against 10-DAB and DT	all other recombinant enzymes exhibited acetylation activity against 10-DAB and DT	–	–	–
CC(=O)O[C@@]12CO[C@@H]1C[C@H](O)[C@@]1(C)C(=O)[C@H](O)C3=C(C)[C@@H](O)C[C@@](O)([C@@H](OC(=O)c4ccccc4)[C@H]21)C3(C)C [compound 1, 10-DAB]	–	–	–	–	all other recombinant enzymes exhibited acetylation activity against 10-DAB and DT	T. x media origins showed similar conversion rates for 10-DAB	all other recombinant enzymes exhibited acetylation activity against 10-DAB and DT
